Assay results as given in the METLIN SMRT retention time set (Domingo-Almenara et al. 2019).

Test: gradient 5% acetonitrile 3 min, to 50% in 2 min, to 85% in 15 min, held 3 min, 100 µL/min
Details: column: Zorbax Extend-C18 2.1 x 50 mm; eluents: water / acetonitrile, 0.1% formic acid
Summary of the method: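 Data were gathered over 3 months by HPLC coupled to a quadrupole time-of-flight mass spectrometer, operated in positive and negative ionization mode. Mixtures of ~100 pure standards ran on a Zorbax Extend-C18 column (2.1 × 50 mm, 1.8 μm) at 100 μL/min, with water and acetonitrile each containing 0.1% formic acid and dead and dwell volumes of 40 μL and 900 μL. Retention time was read from adduct peaks picked by computer and checked manually.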

SMILES	RP-LC retention time
N#Cc1ccc(Cn2cc(C(=O)C(N)=O)c3ccccc32)cc1	810 s
COc1ccc(CNC(=O)CSc2nccc(N3CCN(c4cc(C)ccc4C)CC3)n2)cc1	861 s
CS(=O)(=O)N1CCC(C(=O)NCCc2csc(-c3cccs3)n2)CC1	695 s
Cc1c(C(=O)N2CCCC2)cnn1-c1ncccc1-c1nc(C2CC2)no1	706 s
COc1ccc(C2CC(=O)N(c3ccc(C(C)C)cc3)C(=O)C2)cc1OC	987 s
CC(NC(=O)C1=C2CCCN2c2ccc(F)cc2S1(=O)=O)c1ccc(F)cc1 (centres undefined)	935 s
C=Cc1ccc(CN2CCCN(c3ncccc3-c3nc(CC)no3)CC2)cc1	722 s
O=C(CN1C(=O)CN(C(=O)NCc2ccccc2)c2ccccc21)NCCc1ccco1	803 s
O=C(NCc1ccc2c(c1)OCO2)C1CCN(c2cnc(N3CCSCC3)nc2)CC1	763 s
O=C(NCc1cccs1)C(=O)Nc1ccncc1	548 s
CCOc1cc(C(=O)N2CCN(c3cc(-c4cccs4)[nH]n3)CC2)cc(OCC)c1OCC	907 s
Cc1ccc(S(=O)(=O)N2CCc3c(c(-c4nnc(-c5ccc(F)cc5)o4)nn3C)C2)cc1	971 s
Cc1ccc(NC(=O)Cn2c(C)nc3onc(C)c3c2=O)cc1Cl	885 s
COc1ccc(C)cc1NC(=O)c1nc(-c2cn(Cc3ccc(F)cc3)nn2)no1	961 s
CCCCCC(=O)N1CCCC1	805 s
Cn1cnnc1-c1nn(C)c2c1CN(C(=O)c1n[nH]c3c1CCCCCC3)CC2	650 s
O=C1CCc2cc(NS(=O)(=O)Cc3cccc(Cl)c3)ccc2N1	938 s
Cn1nc(-c2ccccc2)cc1C(=O)NCCn1nc(-c2ccc(Cl)cc2)ccc1=O	836 s
Cc1ccc(-n2ncc3c(N4CCN(C)CC4)ncnc32)cc1Cl	607 s
Cc1c(CC(=O)N2CCC(C(N)=O)CC2)c(=O)oc2c(C)c3occ(C(C)(C)C)c3cc12	821 s
Cc1ccc(NC(=O)N2C[C@@H](F)C[C@H]2C(=O)N2CCCCC2)cc1Cl	813 s
Cc1cc(C)cc(C(=O)N2CCN(c3nc(C)cc(N4CCCCC4)n3)CC2)c1	765 s
CC(=O)NCc1ccc(-c2noc(Cc3c(F)cccc3Cl)n2)s1	834 s
COC(=O)c1cc(OCC(=O)Nc2ccc(F)cc2)c2cc(OC)c(OC)cc2n1	750 s
COc1cccc(-c2noc(Cn3ccn(-c4ccc(Cl)cc4)c(=O)c3=O)n2)c1OC	824 s

SMILES	RP-LC retention time
O=C(Cn1nc2c(Oc3cccc(F)c3)nccn2c1=O)Nc1ccccc1C(F)(F)F	870 s
Cc1cccc(NC(=O)Cn2ccc3ccc(-c4nnc(C)o4)cc32)n1	700 s
CCNC(=O)c1nc(C(=O)NCc2cc(F)cc(F)c2)cs1	781 s
CCNc1nc(C)cc(N2CCN(S(=O)(=O)c3ccc(C(F)(F)F)cc3)CC2)n1	754 s
Cc1ccc(Nc2c(-c3cc(Br)ccc3F)nc3cccc(C)n23)cc1	814 s
COc1ccc(-c2noc(CN3C(=O)COc4cc(C)ccc43)n2)cc1OC	954 s
CCCCn1cc(S(=O)(=O)Nc2ccc(OC)cc2)c2cccnc21	896 s
Cc1ccc(-c2noc(C3CCCN3S(=O)(=O)c3c(C)cc(C)cc3C)n2)cc1 (centres undefined)	1330 s
COc1ccc(NC(=O)Cn2c(C)cc(-c3nnc(C4CC4)o3)c2C)cc1Cl	856 s
CCOC(=O)c1c[nH]c2c(C(=O)OCC)cccc2c1=O	735 s
O=C(c1ccc(Cl)cc1)N1CCC(n2c(-c3ccoc3)nc3cccnc32)C1 (centres undefined)	782 s
CCOC(=O)c1[nH]c(C)c(CCC(=O)Nc2cc(OC)cc(OC)c2)c1C	880 s
CCc1cccc(NC(=O)N2CCN(c3cc(C)nc(N4CCCC4)n3)CC2)c1	704 s
CCCOc1ccc(CN2C[C@@H](CO)[C@H](c3ccccn3)C2)cc1	578 s
CCOCCCNC(=O)C(C)n1c(=O)c(C(F)(F)F)nc2cc(C)c(C)cc21 (centres undefined)	1080 s
Nc1ccc(-c2nc3ccccc3s2)cc1	803 s
O=C(CCc1c(-c2ccc(Br)cc2)nc2ccccn12)NCCN1CCCC1	567 s
O=S(=O)(c1cccc(C(F)(F)F)c1)N1CCN(c2ccc(-n3ccnc3)nn2)CC1	601 s
CCn1cc(-c2nc(C)c(C(=O)Nc3cccc(C(=O)OC)c3)s2)c2cccnc21	993 s
Cc1cc(C)c(NC(=O)CSc2nccc(N3CCN(c4cc(C)ccc4C)CC3)n2)c(C)c1	1080 s
Cc1ccc(C(=O)NCCCN2CCCC2)cc1NC(=O)C1=CSCCO1	596 s
CCC(=O)N1CCc2cc(N3CC(C(=O)NC4CC4)CC3=O)ccc21 (centres undefined)	620 s
CCc1ccccc1NC(=O)Cn1nc2cc(C)nc(Nc3ccc(F)cc3)n2c1=O	1040 s
CCCCCn1c(=O)c2ccccc2n(Cc2nc(-c3cccc(C)c3)no2)c1=O	1310 s
O=c1c2sccc2n(Cc2nc(-c3ccc(F)cc3)no2)c(=O)n1-c1cccc(F)c1	970 s

More lines, now with the values ahead:

RP-LC retention time	SMILES
676 s	Cc1oc(-c2[nH]ncc2C(=O)N2CCCC2)cc1S(=O)(=O)Nc1ccccc1F
851 s	CC(C)OCCCNC(=O)c1cn(C)cc2c(=O)n(-c3ccccc3)nc1-2
591 s	COc1ccc(-c2oc3ccc(OC)cc3c2C(=O)NCCN2CCOCC2)cc1
613 s	CCOC(=O)CNC(=O)Nc1ncc(-c2ccccc2)n1C
862 s	Cc1cc(C)cc(N2CCC(NC(=O)Nc3ccccc3)C2=O)c1 (centres undefined)
984 s	COc1ccc(OC)c(NC(=O)NC(C(=O)N2CCc3ccccc32)C(C)C)c1 (centres undefined)
778 s	COc1ccccc1CNC(=O)C1CCN(c2ccc(SCc3ccccc3)nn2)CC1
914 s	COC(=O)C1C(=O)C2=C(CC1C)NC(C)=C(C(=O)OCCOC(C)C)C2c1ccccc1F (centres undefined)
592 s	O=C(Nc1ccc2c(c1)OCCO2)N1CCC(Cc2nc(-c3cccnc3)n[nH]2)C1 (centres undefined)
827 s	CC1(C)Cc2cccc(OCC(=O)N3CCC(c4nnc(-c5ccco5)s4)CC3)c2O1
888 s	CC(C)c1ccc(NC(=O)C2CCc3nc(N4CCOCC4)ncc3C2)cc1 (centres undefined)
776 s	COc1ccccc1CCC(=O)N(C)C[C@@]12CCC[C@H]1N(C)C(=O)CC2
590 s	CC(C)Oc1ccccc1CN1CC(c2nc(-c3ccncc3)nn2C)C1
850 s	Cc1cc(C)cc(C(=O)N2CCCC(C(=O)NCCc3cccs3)C2)c1 (centres undefined)
604 s	O=C(c1ccncn1)N1C[C@@H](COCC2CC2)[C@H](c2ccccn2)C1
933 s	Cc1ccc(S(=O)(=O)CC(=O)Nc2nc(-c3ccccc3)cs2)cc1
598 s	Cc1nnc(-c2ccc3ccn(CC(=O)N4CCN(c5ccccn5)CC4)c3c2)o1
1240 s	Cc1cccc(C)c1NC(=O)Cn1nc(N2CCC(C)CC2)c2ccccc2c1=O
886 s	CN(C)S(=O)(=O)c1ccc(-c2nnc(C(=O)NC3CCCCC3)o2)cc1
829 s	Cc1cccc(N2CCN(C(=O)c3cc(C)n4nccc4n3)CC2)c1

RP-LC retention time	SMILES
680 s	O=C(NCCCN1CCc2ccccc2C1)c1nnc(-c2ccc(S(=O)(=O)N3CCCC3)cc2)o1
784 s	Cc1ccc(OCC(=O)NCC2(C)CCOCC2)cc1
603 s	CC(C(=O)NCCCN1CCN(C)CC1)n1c(=O)c(C(F)(F)F)nc2ccccc21 (centres undefined)
1130 s	COc1cccc(-c2noc(C3CCCN3C(=O)Nc3cc(Cl)ccc3OC)n2)c1 (centres undefined)
578 s	Cc1scc(CN2CCN(c3ccccn3)CC2)c1C
922 s	CCCN(CC(=O)N1CCc2sccc2C1COc1ccccc1OC)C(=O)C1CC1 (centres undefined)
641 s	Cc1nnsc1C(=O)N1CCC(CNC(=O)Cn2c(=O)oc3ccccc32)CC1
776 s	COCCN1C(=O)c2ccccc2C(C(=O)Nc2ccc(OC)c(OC)c2)C12CCCC2 (centres undefined)
655 s	COc1ccc(C2Cn3cnc(C(=O)N4CCC(C(=O)NCC5CCCO5)CC4)c3CO2)cc1 (centres undefined)
821 s	Cn1cccc1C(=O)N1CCC2(CC1)NC(=O)N(Cc1cccc(Cl)c1)C2=O
703 s	O=C(COc1cccc2ccc(N3CCOCC3)nc12)Nc1ccc(OC(F)(F)F)cc1
836 s	O=C(Cn1cc(Cl)cn1)N1CCCC1c1cccc(F)c1 (centres undefined)
820 s	CCOc1ccccc1C(=O)N1CCN(S(=O)(=O)c2cc3c4c(c2)CCC(=O)N4CCC3)CC1
715 s	CCn1c(=O)n(CC)c2cc(S(=O)(=O)c3ccccc3)c(NC(C)=O)cc21
589 s	CC(=O)Nc1cc(C(=O)NCCN(C)C)ccc1Sc1ccc(Cl)cc1
590 s	Cc1ccccc1NC(=O)Nc1cccnc1N(C)C
676 s	COC(=O)CNC(=O)c1cc2c(=O)n(C)c3ccccc3n2n1
866 s	COCCN1C(=O)c2ccccc2C(C(=O)NCc2cccc(F)c2)C12CCCC2 (centres undefined)
685 s	CC(Oc1ccccc1)C(=O)N(C)CC1(C)CCOCC1 (centres undefined)
